The source of these data is patent US8173645B2 (Takeda San Diego, Inc., priority 2007, dated 2012).

In this experiment the target is T1, glucokinase (GK), residues 12-465 of the human enzyme (Homo sapiens, UniProt P35557).
T1 construct: I.D. No. 1 corresponds to residues 12-465 of glucokinase; made in house; host or cells: E. coli DH10b-Tlr
T1 sequence (P35557 with tags, fused parts or gaps isoform P35557-2): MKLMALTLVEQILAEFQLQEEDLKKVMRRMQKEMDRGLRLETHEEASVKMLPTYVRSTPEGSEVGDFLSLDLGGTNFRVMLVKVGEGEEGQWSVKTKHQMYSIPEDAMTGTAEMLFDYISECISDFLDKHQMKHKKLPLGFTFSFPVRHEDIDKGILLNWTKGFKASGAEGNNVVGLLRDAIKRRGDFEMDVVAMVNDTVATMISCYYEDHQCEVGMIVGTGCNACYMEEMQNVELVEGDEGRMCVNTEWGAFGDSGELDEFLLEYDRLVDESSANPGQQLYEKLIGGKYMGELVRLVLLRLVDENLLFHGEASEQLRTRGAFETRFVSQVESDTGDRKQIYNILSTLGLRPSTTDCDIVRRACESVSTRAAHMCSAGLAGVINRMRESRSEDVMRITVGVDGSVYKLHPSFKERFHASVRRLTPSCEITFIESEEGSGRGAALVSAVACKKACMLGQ
The experiment in a line: Enzymatic glucokinase activity assay (KinaseGlo luminescence, ATP consumption). It counts as biochemical. The settings on record: 5 μM ATP, 5 mM Glucose; for EC50: GK activation, Kact = concentration giving 50% of the maximal increase in GK activity, read-out: pKact; for Emax: calculated maximal gain in GK enzyme activity at a saturating concentration of the compound, read-out: % ACTmax. The text has this:
The activity of compounds as glucokinase activators may be assayed in vitro, in vivo or in a cell line. Provided below is an enzymatic glucokinase activity assay.
Purified glucokinase may be obtained as follows. DNA encoding residues 12-465 of the full-length sequence of the human enzyme may be amplified by PCR and cloned into the HindIII and EcoRI sites of pFLAG-CTC (Sigma). SEQ. I.D. No. 1 corresponds to residues 12-465 of glucokinase.
The expression of recombinant glucokinase protein may be carried out by transformation and growth of DH10b-Tlr E. coli cells incorporating the (pFLAG-CTC) plasmid in LB media. Protein expression can be induced in this system by the addition of IPTG to the culture medium.
Recombinant protein may be isolated from cellular extracts by passage over Sepharose Q Fast Flow resin (Pharmacia). This partially purified GK extract may then be further purified by a second passage over Poros HQ 10 (Applied Biosystems). The purity of GK may be determined on denaturing SDS-PAGE gel. Purified GK may then be concentrated to a final concentration of 20.0 mg/ml. After flash freezing in liquid nitrogen, the proteins can be stored at −78° C. in a buffer containing 25 mM TRIS-HCl pH 7.6, 50 mM NaCl, and 0.5 mM TCEP.
The activation properties of compounds for GK may be determined using a black 384-well-plate format under the following reaction conditions: 25 mM Hepes pH 7.2, 25 mM NaCl, 10 mM MgCl2, 0.01% Brij35, 1 mM DTT, 5 μM ATP, 5 mM Glucose 2% DMSO. The amount of ATP consumed may be determined quantitatively by addition of equal volume of luciferase reagent (luciferase+beetle luciferin—KinaseGlo Luminescent Kinase Assay kit from Promega). The luminescence intensity may be measured by using the Analyst HT from LJL Biosystems.
The assay reaction may be initiated as follows: 4 μl of substrate mixture (12.5 μM ATP and 12.5 mM Glucose) was added to each well of the plate, followed by the addition of 2 μl of activator (2 fold serial dilutions for 11 data points for each activator) containing 10% DMSO. 4 μL of 1.25 nM GK solution may be added to initiate the reaction. The reaction mixture may then be incubated at room temperature for 60 min, and quenched and developed by addition of 10 μL of luciferase reagent. Luminescence intensities of the resulting reaction mixtures may be measured after a 10 min incubation at room temperature. The luminescence intensity may be measured by using the Analyst HT from LJL Biosystems.
pKact and % ACTmax values may be calculated by non-linear curve fitting of the compound concentrations and luminescence intensities to a standard inhibition/activation equation.

For `O=C(Nc1nccs1)[C@H](CC1CCCCC1)N1CCN(S(=O)(=O)Cc2cccc(Cl)c2)CC1=O` [Example 63, (S)-2-(4-(3-chlorobenzylsulfonyl)-2-oxopiperazin-1-yl)-3-cyclohexyl-N-(thiazol-2-yl)propanamide], the EC50 was in the range of 1580 to 2510 nM and the Emax is 108 to 119%.

As for `NC(=O)Nc1ccc(S(=O)(=O)N2CCN([C@@H](CC3CCCCC3)C(=O)Nc3nccs3)C(=O)C2)cc1` [Example 64, (S)-3-cyclohexyl-2-(2-oxo-4-(4-ureidophenylsulfonyl)piperazin-1-yl)-N-(thiazol2-yl)propanamide], the EC50 was no less than 3160 nM and the Emax was 97.1 to 107%.

As to `O=C(Nc1nccs1)[C@H](CC1CCCCC1)N1CCN(S(=O)(=O)c2cccc3ccccc23)CC1=O` [Example 65, (S)-3-cyclohexyl-2-(4-(naphthalen-1-ylsulfonyl)-2-oxopiperazin-1-yl)-N-(thiazol-2-yl)propanamide], the EC50 is 1580 to 2510 nM and the Emax was no more than 74%.

Regarding `N#Cc1ccc(S(=O)(=O)N2CCN([C@@H](CC3CCCCC3)C(=O)Nc3nccs3)C(=O)C2)cc1` [Example 66, (S)-2-(4-(4-cyanophenylsulfonyl)-2-oxopiperazin-1-yl)-3-cyclohexyl-N-(thiazol-2-yl)propanamide], the EC50 is 1580 to 2510 nM and the Emax was 74.1 to 97%.

For `O=C(Nc1nccs1)[C@H](CC1CCCCC1)N1CCN(S(=O)(=O)c2cccc(Cl)c2)CC1=O` [Example 67, (S)-2-(4-(3-chlorophenylsulfonyl)-2-oxopiperazin-1-yl)-3-cyclohexyl-N-(thiazol-2-yl)propanamide], the EC50 is no more than 631 nM and the Emax was 108 to 119%.

As to `O=C(Nc1nccs1)[C@H](CC1CCCCC1)N1CCN(S(=O)(=O)Cc2ccc(F)cc2)CC1=O` [Example 68, (S)-3-cyclohexyl-2-(4-(4-fluorobenzylsulfonyl)-2-oxopiperazin-1-yl)-N-(thiazol-2-yl)propanamide], the EC50 was in the range of 794 to 1260 nM and the Emax is 97.1 to 107%.

As to `O=C(Nc1nccs1)[C@H](CC1CCCCC1)N1CCN(S(=O)(=O)Cc2ccc(Cl)cc2)CC1=O` [Example 69], the EC50 was 1580 to 2510 nM and the Emax was 97.1 to 107%.

`O=C(Nc1nccs1)[C@H](CC1CCCCC1)N1CCN(S(=O)(=O)c2ccc(OC(F)F)cc2)CC1=O` [Example 70, (S)-3-cyclohexyl-2-(4-(4-(difluoromethoxy)phenylsulfonyl)-2-oxopiperazin-1-yl)-N-(thiazol-2-yl)propanamide]: the EC50 was in the range of 1580 to 2510 nM and the Emax is 74.1 to 97%.

On to `O=C(Nc1nccs1)[C@H](CC1CCCCC1)N1CCN(S(=O)(=O)c2ccccc2C(F)(F)F)CC1=O` [Example 71, (S)-3-cyclohexyl-2-(2-oxo-4-(2-(trifluoromethyl)phenylsulfonyl)piperazin-1-yl)-N-(thiazol-2-yl)propanamide], for which the EC50 was no more than 631 nM and the Emax was 108 to 119%.

Consider `O=C(Nc1nccs1)[C@H](CC1CCCCC1)N1CCN(C(=O)Nc2cccc3ccccc23)CC1=O` [Example 77, (S)-4-(3-cyclohexyl-1-oxo-1-(thiazol-2-ylamino)propan-2-yl)-N-(naphthalen-1-yl)-3-oxopiperazine-1-carboxamide], for which the EC50 is no less than 3160 nM and the Emax was 74.1 to 97%.

For the compound `O=C(Nc1nccs1)[C@H](CC1CCCCC1)N1CCN(S(=O)(=O)c2ccccc2)CC1=O` [Example 79, (S)-3-cyclohexyl-2-(2-oxo-4-(phenylsulfonyl)piperazin-1-yl)-N-(thiazol-2-yl)propanamide], the EC50 is no more than 631 nM and the Emax was 97.1 to 107%.

As to `O=C(Nc1nccs1)[C@H](CC1CCCCC1)N1CCN(C(=S)Nc2cccc3ccccc23)CC1=O` [Example 80, (S)-3-cyclohexyl-2-(4-(naphthalen-1-ylcarbamothioyl)-2-oxopiperazin-1-yl)-N-(thiazol-2-yl)propanamide], the EC50 lay within 1580 to 2510 nM and the Emax is 97.1 to 107%.

With `O=C(Nc1nccs1)[C@H](CC1CCCCC1)N1CCN(C(=S)Nc2cccc(Cl)c2)CC1=O` [Example 81, (S)-2-(4-(3-chlorophenylcarbamothioyl)-2-oxopiperazin-1-yl)-3-cyclohexyl-N-(thiazol-2-yl)propanamide], the EC50 was 1580 to 2510 nM and the Emax was 97.1 to 107%.

Regarding `O=C(Nc1nccs1)[C@H](CC1CCCCC1)N1CCN(C(=S)NCc2ccccc2)CC1=O` [Example 82, (S)-2-(4-(benzylcarbamothioyl)-2-oxopiperazin-1-yl)-3-cyclohexyl-N-(thiazol-2-yl)propanamide], the EC50 lay within 1580 to 2510 nM and the Emax was 108 to 119%.

`O=C(Nc1nccs1)[C@H](CC1CCCCC1)N1CCN(C(=S)Nc2ccc(F)cc2)CC1=O` [Example 83, (S)-3-cyclohexyl-2-(4-(4-fluorophenylcarbamothioyl)-2-oxopiperazin-1-yl)N-(thiazol-2-yl)propanamide]: the EC50 is no less than 3160 nM and the Emax was 108 to 119%.

With `O=C(Nc1nccs1)[C@H](CC1CCCCC1)N1CCN(C(=S)Nc2cccc(C(F)(F)F)c2)CC1=O` [Example 84, (S)-3-cyclohexyl-2-(2-oxo-4-(3-(trifluoromethyl)phenylcarbamothioyl)piperazin-1-yl)-N-(thiazol-2-yl)propanamide], the EC50 is no less than 3160 nM and the Emax was 97.1 to 107%.

Consider `O=C(Nc1nccs1)[C@H](CC1CCCCC1)N1CCN(C(=S)Nc2ccc(C(F)(F)F)cc2)CC1=O` [Example 85, (S)-3-cyclohexyl-2-(2-oxo-4-(4-(trifluoromethyl)phenylcarbamothioyl)piperazin-1-yl)-N-(thiazol-2-yl)propanamide], for which the EC50 was no less than 3160 nM and the Emax is no more than 74%.

Consider `COc1ccc(NC(=S)N2CCN([C@@H](CC3CCCCC3)C(=O)Nc3nccs3)C(=O)C2)cc1` [Example 86, (S)-3-cyclohexyl-2-(4-(4-methoxyphenylcarbamothioyl)-2-oxopiperazin-1-yl)-N-(thiazol-2-yl)propanamide], for which the EC50 was no less than 3160 nM and the Emax is 97.1 to 107%.

For `O=C(Nc1nccs1)[C@H](CC1CCCCC1)N1CCN(C(=S)Nc2ccc(Cl)c(Cl)c2)CC1=O` [Example 87, (S)-3-cyclohexyl-2-(4-(3,4-dichlorophenylcarbamothioyl)-2-oxopiperazin-1-yl)-N-(thiazol-2-yl)propanamide], the EC50 is no less than 3160 nM and the Emax was 74.1 to 97%.

Consider `COc1ccc(S(=O)(=O)N2CCN([C@@H](CC3CCCCC3)C(=O)Nc3nccs3)C(=O)C2)cc1OC` [Example 88, (S)-3-cyclohexyl-2-(4-(3,4-dimethoxyphenylsulfonyl)-2-oxopiperazin-1-yl)-N-(thiazol-2-yl)propanamide], for which the EC50 is no less than 3160 nM and the Emax was 97.1 to 107%.

Take `O=C(Nc1nccs1)[C@H](CC1CCCCC1)N1CCN(S(=O)(=O)c2ccc(F)cc2)CC1=O` [Example 89, (S)-3-cyclohexyl-2-(4-(4-fluorophenylsulfonyl)-2-oxopiperazin-1-yl)-N-(thiazol-2-yl)propanamide]: the EC50 fell in the range of 794 to 1260 nM and the Emax is 97.1 to 107%.

With `O=C(Nc1nccs1)[C@H](CC1CCCCC1)N1CCN(S(=O)(=O)c2ccc(Cl)c(Cl)c2)CC1=O` [Example 90, (S)-3-cyclohexyl-2-(4-(3,4-dichlorophenylsulfonyl)-2-oxopiperazin-1-yl)-N-(thiazol-2-yl)propanamide], the EC50 was in the range of 794 to 1260 nM and the Emax was no more than 74%.
